Entries after “also recorded” stand apart in the source; their conditions may differ.
What was measured:
[1] = test system: CD-1 (ICR) mice; assay: Locomotor activity in mice, intraperitoneal; format: in vivo; details: i.p.; nepicastat 3-100, SKF-102698 30 and 100, cocaine 30 mg/kg
Text: Adult male CD-1 (ICR) mice (30-40 g on study day) were housed in groups of eight under a normal light/dark cycle with lights on between 0900 hr and 2100 hr. Food and water were allowed ad libitum. All animals were naive to drug treatment and behavioral testing. Each animal was only used once.
Locomotor activity was monitored in an automated 14 station activity monitoring system (San Diego Instrument Co.). Each station consisted of a clear perspex cage (25 cm×45 cm×20 cm; w×1×h) placed within a metal frame containing 3 photoemmitors and 3 photodetectors spaced equally along the length of the wall. The bottom of each cage was lightly covered in clean cedar bedding.
The mice were placed in the testing room at least 1 hr prior to testing. The mice were placed individually into one of the activity cages and allowed to explore for 30 min. […] Following a 60 minute pre-treatment period, motor activity was monitored for 180 minutes. Activity counts and ambulations (defined as a break of 2 consecutive photobeams) for each animal were recorded every 30 minutes.
A repeated measures two-way analysis of variance (ANOVA) was performed using the overall ranked data (nonparametric technique) to test for the overall effects of treatment, time interval and treatment by time interval interaction. […]

[2] = test system: spontaneous hypertensive rats; assay: SCH-23390 pretreatment study in restrained SHRs; format: in vivo; details: nepicastat 10 mg/kg po
Text: Male, spontaneous hypertensive rats (280-345 g; Charles River Labs, Kingston, N.Y.) were fasted overnight then anesthetized with ether. A femoral artery and femoral vein were cannulated with PE50 tubing for recording of blood pressure and administration of compounds, respectively. Animals were then placed in MAYO restrainers and their feet loosely taped to the restrainer. Heparinized saline (50 units sodium heparin/ml) was used to maintain patency of each cannula throughout the experiment. The following parameters were continuously recorded using Modular Instruments MI^2 BioReport™ software installed on an IBM personal computer: mean arterial pressure (MAP), heart rate (HR), and the change from baseline for each parameter at specified time points in the experiment.
All compounds were dissolved on the day of use. Nepicastat was dissolved in deionized water (vehicle) to a free base concentration of 1 mg/ml. Oral dosing volume for nepicastat or vehicle was 10 ml/kg. SCH-23390 was dissolved in saline (vehicle) to a free base concentration of 0.2 mg/ml. […] or saline were administered intravenously as a bolus in a volume of 1.0 ml/kg followed by 0.2 ml flush of isotonic saline.
Following surgical preparation, each animal was allowed a minimum one hour recovery period. Animals were randomly assigned to four treatment groups: vehicle (iv)/vehicle (po); vehicle (iv)/nepicastat (po); SCH-23390 (iv)/vehicle (po); or SCH-23390 (iv)/nepicastat (po). Once animals were stabilized (minimum one hour), baseline blood pressure and heart rate was determined by taking an average of each parameter over a 15 min period of time. Once baseline blood pressure and heart rate were established, animals were dosed intravenously with either SCH-23390 (200 μg/kg) or vehicle (saline, 1 ml/kg). Fifteen minutes later, animals were orally dosed with either nepicastat (10 mg/kg) or vehicle (deionized water, 10 ml/kg).
Recorded parameters were measured 15 min prior to intravenous dosing to establish baseline blood pressure and heart rate. Recorded parameters were then measured at 5, 10, and 15 min following intravenous administration of SCH-23390 or vehicle. Following oral administration of nepicastat or vehicle, recorded parameters were measured at 15, 30, 60, 90, 120, 150, 180, 210, and 240 min.
At the end of the experiment, each animal was anesthetized with halothane and euthanized via decapitation. The cortex, left ventricle (apex), and mesenteric artery were dissected out, weighed, and fixed in 0.4 M perchloric acid. Tissues were then frozen in liquid nitrogen and stored at −70° C. Biochemical analysis are performed on these tissues at a later date to determine catecholamine levels including dopamine and norepinephrine levels. Blood pressure and heart rate were analyzed separately. The change from baseline for blood pressure and heart rate were analyzed by an analysis of variance (ANOVA) with effects for treatment, time, and their interaction. This analysis was performed both for the post-iv time period and for the post-oral time period. Further analyses were performed at each time by an ANOVA with a main effect for […]. Pairwise comparisons were performed following each ANOVA by Fisher's LSD strategy with a Bonferroni correction when the overall treatment effect was not significant.
An additional analysis was performed to compare the baseline means of each treatment group by an ANOVA with a main effect for treatment and subsequent pairwise comparisons. […]

Row | SMILES | total activity counts and ambulations vs vehicle [1] | heart rate vs vehicle ([2]; SCH-23390 200 μg/kg iv) | mean arterial pressure [2] | time post dose by which MAP decrease was significant [2] [min] | antihypertensive effect of nepicastat after pretreatment with SCH-23390 ([2]; SCH-23390 iv, hydrochloride)
1 | Fc1cc(F)cc(Cn2cc[nH]c2=S)c1 [SKF-102698, reference compound] | no significant differences; also recorded: no significant effects |  |  |  | 
2 | Cl.NCc1c[nH]c(=S)n1[C@H]1CCc2c(F)cc(F)cc2C1 [nepicastat, (S)-5-Aminomethyl-1-(5,7-difluoro-1,2,3,4-tetrahydronaphth-2-yl)-2,3-dihydro-2-thioxo-1H-imidazole hydrochloride] |  | did not decrease the heart rate as much as observed in vehicle treated animals | significant decrease (p<0.05) in mean arterial pressure | ≤ 30 | not attenuated; also recorded: did not significantly attenuate

From patent US10561638B2, “Methods for treating dependence” (Biotie Therapies, Inc., priority 2007, dated 2020)
